Measurements published in patent US5070210A, “Novel ketenimines as intermediates for insecticides” (ICI Americas Inc., priority 1990, dated 1991).

Tests used:
Type in all cases: in vivo
[1] = tested on: Tobacco Budworm [Heliothis virescens (Fabricius)] eggs; assay: Tobacco budworm egg test; conditions: 2-day old eggs, percent in solution
In short: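 Paper-towel patches of 2-day-old eggs dipped in acetone solutions of compound (0.1% downward), held on larval rearing medium at 78° F. Mortality scored once all control eggs had hatched and larvae were feeding; LC50 from dosage-mortality curves, expressed as percent compound in solution.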

[2] = tested on: Housefly [Musca domestica]; assay: Housefly insecticidal test; conditions: μg per 25 female flies; mortality after 48 hours
In short: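 LC50, as μg compound per 25 female flies, comes from dosage-mortality curves with doses from 100 μg downward. Residues were made by evaporating acetone plus 0.01% peanut oil in dishes, onto which 1-2-day-old females were caged; deaths were counted after 48 hours.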

[3] = tested on: Cabbage Looper [Trichoplusia ni (Hubner)]; assay: Cabbage looper insecticidal test; conditions: second-instar larvae, percent in solution; 3-5 days
In short: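 Squash cotyledons dipped 2-3 s in compound in 50-50 acetone-water, dried, then infested with 5 second-instar larvae and held at high humidity. Mortality scored after 3-5 days at concentrations from 0.1% downward. LC50 from dosage-mortality curves, expressed as percent compound in solution.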

[4] = tested on: Beet Armyworm (Spodoptera exigua); assay: Beet armyworm insecticidal test; conditions: second-instar larvae, percent in solution; five days
Method: (§1) The compounds in Tables 1 and 2 above were tested for insecticidal activity using the following testing procedures. LC50 values, based on the results of these tests and calculated according to dosage-mortality curves, are expressed in Table 3.
Beet Armyworm (Spodoptera exigua):
Test compounds were diluted in a 50-50 acetone-water solution. Young leaves of sugar beets (Beta vulgaris) were immersed in the test solutions for 2-3 seconds and placed on a wire screen to dry. The dried leaves were placed in petri dishes containing a moistened filter paper and infested with five second-instar beet armyworm larvae. The dishes were placed in a high humidity chamber. Mortality of the larvae was recorded five days later. Test concentrations ranged from 0.1% downward. The LC-50 values are expressed below in Table 3 under the heading "BAW" in terms of percent of the test compound in solution.

[5] = tested on: Maize weevil [Sitophilus Zeamais (Motschulsky)]; assay: Maize weevil insecticidal test; conditions: adult weevils, percent in solution; 48 hours
In short: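 LC50, in percent of compound in solution, was derived from dosage-mortality curves after 48 h at about 25 °C. Ten adult weevils per container fed on four corn seeds briefly immersed in acetone:water (50:50) solutions of up to 0.01% and dried.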

[6] = tested on: Tobacco Budworm [Heliothis virescens (Fabricius)] larvae; assay: Tobacco budworm contact test; conditions: second-instar larvae, percent in solution, 5 days
Method: as §1
Tobacco Budworm [Heliothis virescens (Fabricius)]:
(a) Contact: Test compounds were diluted in a 50-50 acetone-water solution. Cotton (Gossypium sp.) cotyledons were immersed in the test solutions for 2-3 seconds and placed on a wire screen to dry. The dried leaves were placed in petri dishes containing a moistened piece of filter paper and infested with 5 second-instar tobacco budworm larvae. The dishes were placed in a high humidity chamber for 5 days, and percent mortality of the larvae recorded. Test concentrations ranged from 0.1% downward. The LC-50 values are expressed below in Table 3 under the heading "TBW-C" in terms of percent of the test compound in the solution.

[7] = tested on: Aster Leafhopper [Macrosteles fascifrens (Stal)]; assay: Aster leafhopper insecticidal test; conditions: adults/nymphs, percent in solution; 48 hours
In short: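 LC50 values, given as percent of test compound in the dip solution, were derived from dosage-mortality curves over concentrations from 0.05% downward. Mortality was counted 48 hours after ten leafhopper adults/nymphs were enclosed on treated seedlings. The seedlings were oats, about 10 cm tall, briefly dipped in 50-50 acetone-water.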

| SMILES | LC50, TBW, E (TBW-E) [1] | LC50, HF [2] | LC50, CL [3] | LC50, BAW [4] | LC50, MW [5] | LC50, TBW, C (TBW-C) [6] | LC50, LH [7] |
| --- | --- | --- | --- | --- | --- | --- | --- |
| CC(C)C(=Nc1ccc(Br)c(F)c1)OCc1ccc(F)c(Oc2ccc(F)cc2)c1 [Compound 282] | 0.02% | 16 µg | 0.00007% | 0.0025% | 0.008% | 0.0007% | – |
| CC(C)C(=Nc1ccc(F)cc1F)OCc1cccc(Oc2ccccc2)c1 [Compound 52] | > 0.05% | 8 µg | 0.0025% | 0.01% | – | 0.004% | 0.001% |
| CC(C)C(=Nc1ccc2c(c1)OC(F)(F)O2)OCc1ccc(F)c(Oc2ccc(F)cc2)c1 [Compound 284] | – | 39 µg | 0.00005% | 0.0025% | 0.0075% | 0.0002% | 0.0003% |
| CC(C)C(=Nc1cc(F)cc(C(F)(F)F)c1)OCc1cccc(Oc2ccccc2)c1 [Compound 77] | 0.03% | 10 µg | 0.0005% | 0.004% | > 0.01% | 0.0004% | 0.0002% |
| CC(C)C(=Nc1ccc(Cl)c(Cl)c1)OCc1cccc(Oc2ccccc2)c1 [Compound 9] | 0.02% | 14 µg | 0.001% | 0.0005% | > 0.01% | 0.0008% | 0.0003% |
| CC(C)C(=Nc1cccc(C(F)(F)F)c1)OCc1ccc(F)c(Oc2ccccc2)c1 [Compound 80] | 0.005% | 4.5 µg | 0.0003% | 0.0018% | – | 0.00075% | 0.0001% |
| CC(C)C(=Nc1ccc2c(c1)OC(C)(C)O2)OCc1ccc(F)c(Oc2ccc(F)cc2)c1 [Compound 283] | 0.016% | 23 µg | 0.00009% | 0.0013% | > 0.01% | 0.0009% | – |
| FC(F)(F)c1ccc(N=C(OCc2cccc(Oc3ccccc3)c2)C2CC2)c(Cl)c1 [Compound 65] | > 0.1% | > 100 µg | < 0.01% | > 0.1% | – | 0.1% | > 0.05% |
| CC(C)C(=Nc1ccc(Br)cc1)OCc1ccc(F)c(Oc2ccc(F)cc2)c1 [Compound 333] | 0.025% | 15 µg | 0.00024% | > 0.1% | > 0.01% | 0.00075% | – |
| CC(C)C(=Nc1ccc(F)c(Cl)c1)OCc1ccc(F)c(Oc2ccc(F)c(F)c2)c1 [Compound 346] | > 0.1% | 7.2 µg | > 0.1% | > 0.1% | > 0.01% | 0.0002% | 0.05% |
| CC(C)C(=Nc1ccc(C(C)C)cc1)OCc1cccc(Oc2ccccc2)c1 [Compound 144] | 0.05% | 100 µg | 0.002% | > 0.01% | > 0.01% | 0.006% | 0.0006% |
| CC(C)C(=Nc1ccc2c(c1)OC(F)(F)O2)OCc1cccc(Oc2ccc(Cl)cc2)c1 [Compound 450] | 0.015% | 72 µg | 0.00016% | 0.005% | 0.01% | 0.0001% | – |
| CC(C)C(=Nc1cccc(F)c1)OCc1cccc(Oc2ccccc2)c1 [Compound 47] | 0.06% | 10 µg | 0.002% | 0.002% | – | 0.002% | 0.0003% |
| CC(C)C(=Nc1ccc(F)c(Cl)c1F)OCc1cccc(Oc2ccccc2)c1 [Compound 332] | 0.015% | 7 µg | 0.00045% | 0.0012% | – | 0.00075% | – |
| Cc1c(Cl)cccc1N=C(OCc1cccc(Oc2ccccc2)c1)C(Cl)Cl [Compound 97] | 0.04% | 10 µg | 0.002% | 0.01% | – | 0.004% | – |
| CC(C)C(=Nc1ccc(F)c(F)c1)OCc1cccc(Oc2ccccc2)c1 [Compound 54] | 0.017% | 3.5 µg | 0.0003% | 0.004% | – | 0.001% | 0.00015% |
| CC(C)C(=Nc1ccc(F)c(Cl)c1)OCc1cc(Oc2ccc(F)cc2)c(F)cc1F [Compound 343] | > 0.1% | 40 µg | 0.00027% | > 0.1% | > 0.01% | 0.00025% | – |
| CC(C)C(=Nc1ccc(Cl)c(C(F)(F)F)c1)OCc1cccc(Oc2ccccc2)c1 [Compound 71] | 0.065% | 50 µg | 0.0006% | 0.0004% | – | 0.0008% | 0.002% |
| O=[N+]([O-])c1ccc(N=C(OCc2cccc(Oc3ccccc3)c2)C(Cl)Cl)cc1 [Compound 173] | > 0.1% | 18 µg | 0.02% | > 0.1% | – | > 0.1% | – |
| CC(C)C(=Nc1ccc(F)c(Cl)c1F)OCc1cccc(Oc2ccc(Cl)cc2)n1 [Compound 500] | 0.02% | 16 µg | 0.00009% | 0.002% | – | 0.00075% | – |
| Clc1ccc(N=C(OCc2cccc(Oc3ccccc3)c2)C(Cl)Cl)c(Cl)c1 [Compound 4] | > 0.1% | 100 µg | 0.007% | 0.04% | – | 0.05% | > 0.05% |
| Cc1ccc(N=C(OCc2cccc(Oc3ccccc3)c2)C(Cl)Cl)cc1 [Compound 139] | 0.05% | 4.2 µg | 0.015% | 0.007% | – | 0.005% | – |
| CC(C)C(=Nc1ccc(I)cc1)OCc1ccc(F)c(Oc2ccc(F)cc2)c1 [Compound 335] | 0.05% | 34 µg | 0.00027% | > 0.1% | > 0.01% | 0.00025% | – |
| Fc1ccc(N=C(OCc2cccc(Oc3ccccc3)c2)C2CC2)cc1 [Compound 45] | 0.08% | 30 µg | 0.03% | 0.1% | – | 0.01% | > 0.05% |
| CC(C)C(=Nc1ccc(Cl)cc1)OCc1cccc(Oc2ccccc2)c1 [Compound 2] | 0.04% | 4.5 µg | 0.006% | 0.01% | – | 0.0009% | 0.0003% |
